Laboratory results as given in patent US9770526B2, “Absorbent article” (priority 2011, dated 2017).
Read-outs that look alike come from different tables or passages of the source.

What was measured:
[1] = Rewetting rate of sanitary napkin; settings: Example 2: agent coated on top sheet only, about 5 g/m^2; horse EDTA blood
Experimental: (obtained by adding ethylenediaminetetraacetic acid (hereunder, “EDTA”) to horse blood to prevent coagulation) was dropped through the hole using a pipette (once), and after 1 minute, 3 g of horse EDTA blood at 37±1° C. was again added dropwise through the acrylic board hole with a pipette (twice).
After the second dropping of blood, the acrylic board was immediately removed and 10 sheets of filter paper (50 mm×35 mm) were placed on the location where the blood had been dropped, and then a weight was placed thereover to a pressure of 30 g/cm^2. After 1 minute, the filter paper was removed and the “rewetting rate” was calculated by the following formula. Rewetting rate (%)=100×(filter paper mass after test−initial filter paper mass)/6

[2] = Absorbent body migration rate; settings: Example 2: agent coated on top sheet only, about 5 g/m^2; horse EDTA blood
Experimental: In addition to the rewetting rate evaluation, the “absorbent body migration rate” was also measured as the time until migration of blood from the top sheet to the absorbent body after the second dropping of blood. The absorbent body migration rate is the time from […].

[3] = Water solubility in 100 g of water at 25° C.
Excerpt: As used herein, the term “solubility” in regard to water solubility includes cases where the sample completely dissolves in deionized water to form a homogeneous mixture, and cases where the sample is completely emulsified. As used herein, “completely” means that no mass of the sample remains in the deionized water.

[4] = Surface tension of blood containing blood modifying agent (pendant drop method); parameters: species or system sheep; settings: Amount 0.10 mass %; measuring temperature 35° C.
Experimental: The surface tension of blood containing a blood modifying agent was measured by the pendant drop method, using a Drop Master500 contact angle meter by Kyowa Interface Science Co., Ltd. The surface tension was measured after adding a prescribed amount of blood modifying agent to sheep defibrinated blood, and thoroughly shaking. The measurement was accomplished automatically with a device, and the surface tension γ was determined by the following formula (see FIG. 8). γ=g×ρ×(de)^2×1/H The density ρ was measured at the temperatures listed in Table 6, according to JIS K 2249-1995, “Density test methods and density/mass/volume conversion tables”, “5. Vibrating density test method”. The measurement was accomplished using a DA-505 by Kyoto Electronics Co., Ltd.

Row | Compound | Rewetting rate (%) [1] | Absorbent body migration rate [2] | Water solubility [3] | other results
1 | CCCCCCCC(=O)OCC(COC(=O)CCCCCCC)OC(=O)CCCCCCC [No. 2-8, Glycerin and fatty acid triester with octanoic acid (C8) as the entire fatty acid portion] | 0.3% | 3 s |  | Water solubility ([3]; in 100 g of water at 25° C., 24 hours, visual): <0.05 g
2 | CCCCC(CC)C(=O)OCC(C)(C)COC(=O)C(CC)CCCC (stereo not drawn) [No. 2-15, Neopentylglycol di-2-ethylhexanoate] | 2.0% | 5 s | <0.05 g | 
3 | CCCCCCCCOC(=O)CCCCC(=O)OCCCCCCCC [No. 2-16, Dioctyl adipate] | 1.7% | 6 s |  | 
4 | CCCCCCCCCCCCOC(=O)CCCCCCCCCCC [No. 2-17, Ester of dodecanoic acid (C12) and dodecyl alcohol (C12)] | 1.8% | 5 s |  | Surface tension (mN/m) [4]: 58.8 mN/m
5 | CCCCCCCCCCCCCC(=O)OCCCCCCCCCCCC [No. 2-18, Ester of tetradecanoic acid (C14) and dodecyl alcohol (C12)] | 1.8% | 4 s |  | 
6 | CCCCCCCCCCCC(=O)OCC(O)CO (stereo not drawn) [No. 2-31, lauric acid monoglyceride] | 6.2% |  |  | 
7 | Glycerin and fatty acid diester with octanoic acid as the fatty acid [No. 2-12] | 4.2% | 9 s |  | 
8 | Glycerin and fatty acid triester with 2-ethylhexanoic acid (CO as the entire fatty acid portion [No. 2-9] | 2.0% | 3 s |  | 
9 | Isopropyl citrate [No. 2-34] | 12.2% | 5 s |  | 
10 | Polybutylene glycol [No. 2-23] |  |  | <0.05 g | 
11 | Polyoxybutylenepolyoxypropylene glycol [No. 2-24] |  |  | <0.05 g | 
12 | Polypropylene glycol [No. 2-19] |  |  | <0.05 g | 
13 | Polypropylene glycol [No. 2-20] |  |  | <0.05 g | 
14 | Polypropylene glycol [No. 2-21] |  |  | <0.05 g | 
15 | Polypropylene glycol [No. 2-22] |  |  | <0.05 g | 
16 | Polypropylene glycol [No. 2-35] |  |  |  | Water solubility (g) [3]: 0.05< g
